Test results taken from patent publication US20150148234A1, “HERBICIDE-RESISTANT SUNFLOWER PLANTS WITH MULTIPLE HERBICIDE RESISTANT ALLELES OF AHASL1 AND METHODS OF USE” (NIDERA S.A., priority 2013, published 2015).

Legend:
[1] = test system: sunflower line L5 (BTK 47), susceptible, WT; assay: imazapyr whole plant greenhouse test (Example 2); format: in vivo; settings: for Phytotoxicity Index (0-9) 14 days after treatment / biomass accumulation 14 days after treatment, % of untreated / plant height 14 days after treatment, % of untreated: L5; for height reduction: susceptible line
Protocol: (§1) Seeds were sown in Petri dishes and, after germination, plantlets were transplanted to pots of 10 cm of diameter in a potting media consisting of equal parts of vermiculite, soil and sand. Plants were grown in a greenhouse under natural light conditions supplemented with 400 W sodium halide lamps to provide a 16 hr daylength. Day/night temperatures were 25 and 20 ° C., respectively. At the V2-V4 stage (Schneiter & Miller (1981) Crop Sci. 21:901-903) 10 plants of each genotype were randomly assigned to each treatment consisting of eight imazapyr doses (0, 40, 80, 160, 240, 320, 400 and 480 g ai/ha, corresponding to untreated, 0.5×, 1×, 2×, 3×, 4×, 5× and 6×, respectively), and a zero-time biomass determination. Experiment was arranged as a randomized block design with a full factorial (sunflower line×treatment) arrangement of treatments and 10 replications.
(§2) On the day of herbicide application ten plants of each genotype were cut at the cotyledonal node and dried at 60° C. for 48 hrs for zero-time dried weight determination.
(§3) The remaining plants were maintained for 14 days after imazapyr treatment (DAT) and their height, Phytotoxicity Index (PI) and above ground dry biomass were determined Height was determined as the distance between the cotyledonal node and the apex of each plant. Above ground biomass data from each line were converted to biomass accumulation after application by subtracting the appropriate average zero- time biomass from each sample. Dry biomass data were converted to percentages of the untreated control plants within each line to allow direct comparisons between groups.

[2] = test system: sunflower hybrid H3 (L3 × L2), A205V + A122T; assay: imazapyr whole plant greenhouse test (Example 2); format: in vivo
Protocol: as §1, §2, §3

[3] = test system: sunflower line L2, A205V; assay: imazapyr whole plant greenhouse test (Example 2); format: in vivo
Protocol: as §1, §2, §3

[4] = test system: sunflower hybrid H5 (L3 x WT), 122/Wild type; assay: field trial, imazapyr at V8 or R1 stage (Example 4); settings: H5 122/Wild type
[5] = test system: sunflower line VB141 (high oleic); assay: tolerance to imidazolinones, greenhouse (Example 8)
[6] = test system: sunflower line BTK112 (conventional); assay: as above
[7] = 160 gr/ha at V4, fourteen days after treatment

In the case of `CC(C)C1(C)N=C(c2ncccc2C(=O)O)NC1=O` (stereo not shown) [imazapyr], the “Phytotoxicity Index (0-9) 14 days after treatment” value (from here on “Phytotoxicity Index (0-9) 14 days”) ([1]; dose 5 (5x, 400 g ai/ha)) is reported as 9, the “biomass accumulation 14 days after treatment, % of untreated” value ([1]; dose 5 (5x, 400 g ai/ha)) is reported as 15.0% and the “plant height 14 days after treatment, % of untreated” value ([1]; dose 5 (5x, 400 g ai/ha)) is reported as 14.58%. For the same compound, the “Phytotoxicity Index (0-9) 14 days” value ([1]; dose 6 (6x, 480 g ai/ha)) was 9, the “biomass accumulation 14 days after treatment, % of untreated” value ([1]; dose 6 (6x, 480 g ai/ha)) was 15.0% and the “plant height 14 days after treatment, % of untreated” value ([1]; dose 6 (6x, 480 g ai/ha)) was 14.58%. For the same compound, the height reduction ([1]; 0.5x, 14 DAT) was 85%, the height reduction ([1]; from 1x to 6x, of the untreated control plants) was “approximately 85%” and the “Phytotoxicity Index (0-9) 14 days” value ([2]; dose 0.5 (0.5x, 40 g ai/ha)) was 0.5. The “biomass accumulation 14 days after treatment, % of untreated” value ([2]; dose 0.5 (0.5x, 40 g ai/ha)) was 99.804%, the “plant height 14 days after treatment, % of untreated” value ([2]; dose 0.5 (0.5x, 40 g ai/ha)) was 98.7% and the “Phytotoxicity Index (0-9) 14 days” value ([2]; dose 1 (1x, 80 g ai/ha)) was 0.5. For the same compound, the “biomass accumulation 14 days after treatment, % of untreated” value ([2]; dose 1 (1x, 80 g ai/ha)) was 100.0%, the “plant height 14 days after treatment, % of untreated” value ([2]; dose 1 (1x, 80 g ai/ha)) was 97.0% and the “Phytotoxicity Index (0-9) 14 days” value ([2]; dose 2 (2x, 160 g ai/ha)) was 0.5. The “biomass accumulation 14 days after treatment, % of untreated” value ([2]; dose 2 (2x, 160 g ai/ha)) was 94.3%, the “plant height 14 days after treatment, % of untreated” value ([2]; dose 2 (2x, 160 g ai/ha)) was 96.7% and the “Phytotoxicity Index (0-9) 14 days” value ([2]; dose 3 (3x, 240 g ai/ha)) was 0.5. The “biomass accumulation 14 days after treatment, % of untreated” value ([2]; dose 3 (3x, 240 g ai/ha)) was 90.8%, the “plant height 14 days after treatment, % of untreated” value ([2]; dose 3 (3x, 240 g ai/ha)) was 93.8% and the “Phytotoxicity Index (0-9) 14 days” value ([2]; dose 4 (4x, 320 g ai/ha)) was 0.5. For the same compound, the “biomass accumulation 14 days after treatment, % of untreated” value ([2]; dose 4 (4x, 320 g ai/ha)) was 87.8%, the “plant height 14 days after treatment, % of untreated” value ([2]; dose 4 (4x, 320 g ai/ha)) was 92.0% and the “Phytotoxicity Index (0-9) 14 days” value ([2]; dose 5 (5x, 400 g ai/ha)) was 0.6. For the same compound, the “biomass accumulation 14 days after treatment, % of untreated” value ([2]; dose 5 (5x, 400 g ai/ha)) was 72.1%, the “plant height 14 days after treatment, % of untreated” value ([2]; dose 5 (5x, 400 g ai/ha)) was 65.4% and the “Phytotoxicity Index (0-9) 14 days” value ([2]; dose 6 (6x, 480 g ai/ha)) was 1.0. For the same compound, the “biomass accumulation 14 days after treatment, % of untreated” value ([2]; dose 6 (6x, 480 g ai/ha)) was 63.2%, the “plant height 14 days after treatment, % of untreated” value ([2]; dose 6 (6x, 480 g ai/ha)) was 58.0% and the “Phytotoxicity Index (0-9) 14 days” value ([3]; dose 0.5 (0.5x, 40 g ai/ha)) was 0. The “biomass accumulation 14 days after treatment, % of untreated” value ([3]; dose 0.5 (0.5x, 40 g ai/ha)) was 99.2%, the “plant height 14 days after treatment, % of untreated” value ([3]; dose 0.5 (0.5x, 40 g ai/ha)) was 99.2% and the “Phytotoxicity Index (0-9) 14 days” value ([3]; dose 1 (1x, 80 g ai/ha)) was 0. The “biomass accumulation 14 days after treatment, % of untreated” value ([3]; dose 1 (1x, 80 g ai/ha)) was 85.0%, the “plant height 14 days after treatment, % of untreated” value ([3]; dose 1 (1x, 80 g ai/ha)) was 98.1% and the “Phytotoxicity Index (0-9) 14 days” value ([3]; dose 2 (2x, 160 g ai/ha)) was 3.1. For the same compound, the “biomass accumulation 14 days after treatment, % of untreated” value ([3]; dose 2 (2x, 160 g ai/ha)) was 58.1%, the “plant height 14 days after treatment, % of untreated” value ([3]; dose 2 (2x, 160 g ai/ha)) was 63.6% and the “Phytotoxicity Index (0-9) 14 days” value ([3]; dose 3 (3x, 240 g ai/ha)) was 3.9. For the same compound, the “biomass accumulation 14 days after treatment, % of untreated” value ([3]; dose 3 (3x, 240 g ai/ha)) was 48.1%, the “plant height 14 days after treatment, % of untreated” value ([3]; dose 3 (3x, 240 g ai/ha)) was 51.9% and the “Phytotoxicity Index (0-9) 14 days” value ([3]; dose 4 (4x, 320 g ai/ha)) was 5.9. For the same compound, the “biomass accumulation 14 days after treatment, % of untreated” value ([3]; dose 4 (4x, 320 g ai/ha)) was 28.8%, the “plant height 14 days after treatment, % of untreated” value ([3]; dose 4 (4x, 320 g ai/ha)) was 27.5% and the “Phytotoxicity Index (0-9) 14 days” value ([3]; dose 5 (5x, 400 g ai/ha)) was 6.9. For the same compound, the “biomass accumulation 14 days after treatment, % of untreated” value ([3]; dose 5 (5x, 400 g ai/ha)) was 27.4%, the “plant height 14 days after treatment, % of untreated” value ([3]; dose 5 (5x, 400 g ai/ha)) was 26.0% and the “Phytotoxicity Index (0-9) 14 days” value ([3]; dose 6 (6x, 480 g ai/ha)) was 6.7. The “biomass accumulation 14 days after treatment, % of untreated” value ([3]; dose 6 (6x, 480 g ai/ha)) was 24.9%, the “plant height 14 days after treatment, % of untreated” value ([3]; dose 6 (6x, 480 g ai/ha)) was 29.3% and the “Mean Phytotoxicity Index (0-50)” value ([4]; 160 g ai/ha applied at R1, 14 DAT) was 11.7. The “Mean Phytotoxicity Index (0-50)” value ([4]; 160 g ai/ha applied at R1, 21 DAT) was 23.3, the “Mean Phytotoxicity Index (0-50)” value ([4]; 160 g ai/ha applied at V8, 14 DAT) was 15 and the “Mean Phytotoxicity Index (0-50)” value ([4]; 160 g ai/ha applied at V8, 21 DAT) was 5. For the same compound, the “outcome of the herbicide treatment” value ([5]; 160 gr/ha at V4) was “killed”, the “Mean Phytotoxicity Index (0-9)” value [5, 7] was 8.5 and the “outcome of the herbicide treatment” value ([6]; 160 gr/ha at V4) was “killed”. For the same compound, the “Mean Phytotoxicity Index (0-9)” value [6, 7] was 9.
